The results in this text go back to publication PMC10511702, “Design, molecular modelling and synthesis of novel benzothiazole derivatives as BCL-2 inhibitors” (Scientific Reports, 2023).

pIC50: −log10 of the molar value.

For one data set, the target named is T1, recombinant BCL-2 (Homo sapiens, UniProt P10415).
T1 construct: purchased BPS Bioscience 50272
The experiment in a line: In vitro BCL-2 inhibitory activity, TR-FRET assay (BPS Bioscience). To be noted: for inhibition at 10 µM / BCL-2 inhibition %: single dose of 10 µM; for pIC50: 5 concentrations 1 nM-10 µM. Format: binding. Here is the method: The in vitro enzyme inhibition determination for the synthesized compounds was carried out in BPS Bioscience Corporation, San Diego, CA, USA (www.bpsbioscience.com). […] The assay was performed by TR-FRET technology using a recombinant BCL-2 and a peptide- ligand substrate. The TR-FRET signal from the assay is correlated with the amount of Ligand binding to BCL-2. […] All of the binding reactions were conducted at room temperature. […] The reaction mixture incubated for 180 min prior to reading the TR-FRET signal. For the background, ligand was replaced with assay buffer. Fluorescence signals for both the donor and acceptor dyes were measured using a Tecan Infinite M1000 plate reader. TR-FRET was recorded as the ratio of the fluorescence of the acceptor and the donor dyes (acceptor/donor). Binding experiments were performed in duplicate at each concentration. The TR-FRET data were analyzed using the computer software, Graphpad Prism. In the absence of the compound in wells containing BCL-2 ligand, the TR-FRET signal (Ft) in each data set was defined as 100% activity. In wells without peptide ligand, the TR-FRET signal (Fb) in each data set was defined as 0% activity. The percent activity in the presence of each compound was calculated according to the following equation: % activity = [(F − Fb)/ (Ft − Fb)] × 100, where F = the TR-FRET signal in the presence of the compound. The percent inhibition was calculated according to the following equation: % inhibition = 100—% activity. IC50 determination for target compounds against BCL-2 was calculated. […] The IC50 value was determined by the concentration causing a half-maximal percent activity.
A general note: In TR-FRET formats the signal depends on donor and acceptor labels being close together.

T1 sequence (P10415 whole entry): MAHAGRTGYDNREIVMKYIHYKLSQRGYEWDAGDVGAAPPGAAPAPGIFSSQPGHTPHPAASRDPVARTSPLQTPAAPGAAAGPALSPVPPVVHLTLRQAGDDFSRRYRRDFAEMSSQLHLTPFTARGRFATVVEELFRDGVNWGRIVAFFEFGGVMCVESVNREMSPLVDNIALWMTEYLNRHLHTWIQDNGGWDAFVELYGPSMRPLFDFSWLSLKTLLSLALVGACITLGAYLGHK

Consider `O=C(c1ccc2nc(NS(=O)(=O)c3ccc4ccccc4c3)sc2c1)N1CCN(c2ccccc2)CC1` [7a, N-(6-(4-Phenylpiperazine-1-carbonyl)benzo[d]thiazol-2-yl)naphthalene-2-sulfonamide], for which the inhibition at 10 µM at recombinant BCL-2 turned out to be 0%.

As to `O=C(c1ccc2nc(NS(=O)(=O)c3ccc4ccccc4c3)sc2c1)N1CCN(c2ccccc2F)CC1` [7b, N-(6-(4-(2-Fluorophenyl)piperazine-1-carbonyl)benzo[d]thiazol-2-yl)naphthalene-2-sulfonamide], the melting point lay within 290 to 292 °C. Further, the inhibition at 10 µM on recombinant BCL-2 came out at 0%.

Turning to `COc1ccccc1N1CCN(C(=O)c2ccc3nc(NS(=O)(=O)c4ccc5ccccc5c4)sc3c2)CC1` [7c, N-(6-(4-(2-Methoxyphenyl)piperazine-1-carbonyl)benzo[d]thiazol-2-yl)naphthalene-2-sulfonamide], the melting point lay within 258 to 260 °C. Also, the inhibition at 10 µM on recombinant BCL-2 was found to be 2%.

`O=C(c1ccc2nc(NS(=O)(=O)c3ccc4ccccc4c3)sc2c1)N1CCN(C(c2ccccc2)c2ccccc2)CC1` [7f, N-(6-(4-Benzhydrylpiperazine-1-carbonyl)benzo[d]thiazol-2-yl)naphthalene-2-sulfonamide] came in with a melting point of 200 to 202 °C. The inhibition at 10 µM at recombinant BCL-2 amounted to 7%.

With `O=C(c1ccc2nc(NS(=O)(=O)c3ccc4ccccc4c3)sc2c1)N1CCN(C/C=C/c2ccccc2)CC1` [7g, (E)-N-(6-(4-Cinnamylpiperazine-1-carbonyl)benzo[d]thiazol-2-yl)naphthalene-2-sulfonamide], the melting point fell in the range of 240 to 242 °C. At recombinant BCL-2, the inhibition at 10 µM turned out to be 7%.

Compound `O=C(c1ccc2nc(NS(=O)(=O)c3ccc4ccccc4c3)sc2c1)N1CCN(Cc2ccc3c(c2)OCO3)CC1` [7h, N-(6-(4-(Benzo[d]dioxol-5-ylmethyl)piperazine-1-carbonyl)benzo[d]thiazol-2-yl)naphthalene-2-sulfonamide] showed a melting point of 178 to 180 °C. In addition, on recombinant BCL-2, the inhibition at 10 µM was found to be 1%.

Take `O=C(c1ccc2nc(NS(=O)(=O)c3ccc4ccccc4c3)sc2c1)N1CCN(C(=O)C2CCCO2)CC1` (centres unmarked) [7i, N-(6-(4-(Tetrahydrofuran-2-carbonyl)piperazine-1-carbonyl)benzo[d]thiazol-2-yl)naphthalene-2-sulfonamide]: the melting point lay in the range of 230 to 232 °C. For the same compound, the inhibition at 10 µM on recombinant BCL-2 amounted to 4%.

In turn, `O=C(Nc1ccc(OCc2cccc(F)c2)cc1)c1ccc2nc(NS(=O)(=O)c3ccc4ccccc4c3)sc2c1` [8a, N-(4-((3-Fluorobenzyl)oxy)phenyl)-2-(naphthalene-2-sulfonamido)-benzo[d]thiazole-6-carboxamide] came in with a melting point of 146 to 148 °C. Also, the inhibition at 10 µM on recombinant BCL-2 is 41%.

The compound `O=C(Nc1ccc(OCc2cccc(Cl)c2)cc1)c1ccc2nc(NS(=O)(=O)c3ccc4ccccc4c3)sc2c1` [8b, N-(4-((3-Chlorobenzyl)oxy)phenyl)-2-(naphthalene-2-sulfonamido)benzo[d]thiazole-6-carboxamide] had a melting point of 198 to 200 °C. Moreover, the inhibition at 10 µM on recombinant BCL-2 stood at 16%.

Consider `O=C(Nc1ccc(OCc2ccc(Cl)cc2)cc1)c1ccc2nc(NS(=O)(=O)c3ccc4ccccc4c3)sc2c1` [8c, N-(4-((4-Chlorobenzyl)oxy)phenyl)-2-(naphthalene-2-sulfonamido)benzo[d]thiazole-6-carboxamide], for which the melting point is 296 to 298 °C. Moreover, the inhibition at 10 µM on recombinant BCL-2 amounted to 48%.

For `O=C(Nc1ccc(OCc2ccc(Br)cc2)cc1)c1ccc2nc(NS(=O)(=O)c3ccc4ccccc4c3)sc2c1` [8d, N-(4-((4-Bromobenzyl)oxy)phenyl)-2-(naphthalene-2-sulfonamido)benzo[d]thiazole-6-carboxamide], the melting point was at least 300 °C. Further, at recombinant BCL-2, the pIC50 is 5.79 and the inhibition at 10 µM is over 60%.

`Cc1ccc(COc2ccc(NC(=O)c3ccc4nc(NS(=O)(=O)c5ccc6ccccc6c5)sc4c3)cc2)cc1` [8e, N-(4-((4-Methylbenzyl)oxy)phenyl)-2-(naphthalene-2-sulfonamido)benzo[d]thiazole-6-carboxamide]: the melting point is at least 300 °C. Moreover, at recombinant BCL-2, the inhibition at 10 µM was 13%.

For the compound `O=C(Nc1ccc(OCc2ccc(C(F)(F)F)cc2)cc1)c1ccc2nc(NS(=O)(=O)c3ccc4ccccc4c3)sc2c1` [8f, N-(4-((4-Trifluormethylbenzyl)oxy)phenyl)-2-(naphthalene-2-sulfonamido)benzo-[d]thiazole-6-carboxamide], the melting point was at least 300 °C. The inhibition at 10 µM on recombinant BCL-2 came out at 14%.

Regarding `O=C(Nc1ccc(Oc2ccc(Cl)c(F)c2)cc1)c1ccc2nc(NS(=O)(=O)c3ccc4ccccc4c3)sc2c1` [9a, N-(4-(4-Chloro-3-fluorophenoxy)phenyl)-2-(naphthalene-2-sulfonamido)benzo[d]thiazole-6-carboxamide], the melting point lay within 294 to 296 °C. For the same compound, the inhibition at 10 µM at recombinant BCL-2 was 9%.

`O=C(Nc1ccc(Oc2ccc(Br)cc2)cc1)c1ccc2nc(NS(=O)(=O)c3ccc4ccccc4c3)sc2c1` [9b, N-(4-(4-Bromophenoxy)phenyl)-2-(naphthalene-2-sulfonamido)benzo[d]thiazole-6-carboxamide] registered a melting point of 280 to 282 °C. In addition, the inhibition at 10 µM on recombinant BCL-2 turned out to be 9%.

For `COc1ccccc1N1CCN(C(=O)c2ccc3nc(NC(=O)c4ccc(NCCc5ccccc5)c([N+](=O)[O-])c4)sc3c2)CC1` [12a, N-(6-(4-(2-Methoxyphenyl)piperazine-1-carbonyl)benzo[d]thiazol-2-yl)-3-nitro-4-(phenethylamino)benzamide], the melting point fell in the range of 184 to 186 °C. In addition, on recombinant BCL-2, the inhibition at 10 µM came out at 15%.

The compound `O=C(Nc1nc2ccc(C(=O)N3CCN(c4ccc(Cl)c(Cl)c4)CC3)cc2s1)c1ccc(NCCc2ccccc2)c([N+](=O)[O-])c1` [12b, N-(6-(4-(3,4-Dichlorophenyl)piperazine-1-carbonyl)benzo[d]thiazol-2-yl)-3-nitro-4-(phenethylamino)benzamide] displayed a melting point of 176 to 178 °C. The inhibition at 10 µM at recombinant BCL-2 is 18%.

The compound `O=C(Nc1nc2ccc(C(=O)N3CCN(C(c4ccccc4)c4ccccc4)CC3)cc2s1)c1ccc(NCCc2ccccc2)c([N+](=O)[O-])c1` [12c, N-(6-(4-Benzhydrylpiperazine-1-carbonyl)benzo[d]thiazol-2-yl)-3-nitro-(phenethylamino)-benzamide] gave a melting point of 170 to 172 °C. Besides, the inhibition at 10 µM at recombinant BCL-2 came out at 18%.

`O=C(Nc1nc2ccc(C(=O)N3CCN(C/C=C/c4ccccc4)CC3)cc2s1)c1ccc(NCCc2ccccc2)c([N+](=O)[O-])c1` [12d, (E)-N-(6-(4-Cinnamylpiperazine-1-carbonyl)benzo[d]thiazol-2-yl)-3-nitro-4-(phenethyl-amino)benzamide] yielded a melting point of 244 to 246 °C. Besides, on recombinant BCL-2, the inhibition at 10 µM was determined as 14%.

Compound `O=C(Nc1nc2ccc(C(=O)N3CCN(C(=O)C4CCCO4)CC3)cc2s1)c1ccc(NCCc2ccccc2)c([N+](=O)[O-])c1` (centres unmarked) [12e, 3-Nitro-4-(phenethylamino)-N-(6-(4-(tetrahydrofuran-2-carbonyl)piperazine-1-carbonyl)-benzo[d]thiazol-2-yl)benzamide] came in with a melting point of 134 to 136 °C. The inhibition at 10 µM on recombinant BCL-2 came out at 8%.

`O=C(Nc1ccc(OCc2cccc(Cl)c2)cc1)c1ccc2nc(NC(=O)c3ccc(NCCc4ccccc4)c([N+](=O)[O-])c3)sc2c1` [13a, N-(4-((3-Chlorobenzyl)oxy)phenyl)-2-(3-nitro-4-(phenethylamino)benzamido) benzo[d]thiazole-6-carboxamide] gave a melting point of 260 to 262 °C. Further, on recombinant BCL-2, the inhibition at 10 µM was 35%.

The compound `O=C(Nc1ccc(OCc2ccc(Br)cc2)cc1)c1ccc2nc(NC(=O)c3ccc(NCCc4ccccc4)c([N+](=O)[O-])c3)sc2c1` [13b, N-(4-((4-Bromobenzyl)oxy)phenyl)-2-(3-nitro-4-(phenethylamino)benzamido)-benzo[d]thiazole-6-carboxamide] returned a melting point of 260 to 262 °C. On recombinant BCL-2, the pIC50 is 5.96 and the inhibition at 10 µM is over 60%.

Regarding `O=C(Nc1ccc(Oc2ccc(Cl)c(F)c2)cc1)c1ccc2nc(NC(=O)c3ccc(NCCc4ccccc4)c([N+](=O)[O-])c3)sc2c1` [14a, N-(4-(4-Chloro-3-fluorophenoxy)phenyl)-2-(3-nitro-4-(phenethylamino)benzamido)-benzo[d]thiazole-6-carboxamide], the melting point is 196 to 198 °C. Besides, the inhibition at 10 µM on recombinant BCL-2 was 20%.

Take `CC1(C)CCC(CN2CCN(c3ccc(C(=O)NS(=O)(=O)c4ccc(NCC5CCOCC5)c([N+](=O)[O-])c4)c(Oc4cnc5[nH]ccc5c4)c3)CC2)=C(c2ccc(Cl)cc2)C1` [ABT-199 (20), reference compound]: on recombinant BCL-2 (at 100 nM), the inhibition at 0.1 µM worked out at 92%.

In the case of “N-(6-(4-(3,4-Dichlorophenyl)piperazine-1-carbonyl)benzo[d]thiazol-2-yl)naphthalene-2-sulfonamide [7e]”, the BCL-2 inhibition % on recombinant BCL-2 is recorded as 0%.

Turning to “N-(6-(4-(4-Chlorophenyl)piperazine-1-carbonyl)benzo[d]thiazol-2-yl)naphthalene-2-sulfonamide [7d]”, the BCL-2 inhibition % on recombinant BCL-2 is given as 8%.

The term inhibition denotes the percentage by which the read-out fell short of the control. Usually melting point stands for the temperature, or range, at which the solid turns liquid. In general, pIC50 refers to −log10 of the IC50, conventionally taken in molar units.
